Reference: a melting point compilation (Tetko et al.; mined from patent text by program, amines drawn as free bases though some values may be those of a salt)
Residues, ends and D or L forms follow the SMILES beside them. *: point of attachment. Boc = CC(C)(C)OC(=O)*; OBn = c1ccc(CO*)cc1; Bn = c1ccc(C*)cc1

| melting point [°C] | Compound |
| --- | --- |
| 127 to 131 | CCC(CC)n1cnc2c(Oc3c(C)cc(C)cc3C)nc(C)cc21 |
| 110 to 112 | CS(=O)c1c(C(=O)c2cnoc2C2CC2)ccc(Cl)c1Cl (stereo not given) |
| 151 to 155 | COC(=O)c1nc(SC(F)(F)F)c(N)nc1N |
| 191 to 192 | O=C(CO[C@H]1CC[C@@H](CCNS(=O)(=O)c2ccc(Cl)cc2)CC1)Nc1nnn[nH]1 |
| 153 to 155 | CC(=O)NCC1CC1c1ccc(Cl)c2nn(C)cc12 (stereo not given) |
| 243 to 245 | C/C=C/c1cccc2c(=O)c(C)c(C(N)=O)oc12 |
| 144 to 145 | O=C(O)C(=O)c1ccc(OCCOc2ccc3ccccc3c2)cc1 |
| 175 to 177 | COC(=O)C1CC=C(c2c(-c3ccccc3)[nH]c3ccccc23)CC1 (stereo not given) |
| 184 to 185 | CC(C)CCN1CCC(N(C)S(=O)(=O)c2ccc(Nc3nccc(Nc4ccc(F)cc4)n3)cc2)CC1 |
| 86 to 87.5 | CC(C)(C)c1cc(SCCc2n[nH]c(=O)o2)cc(C(C)(C)C)c1O |
| 173 to 174 | Cc1cccc(-c2sc(NC(=O)Nc3ccccc3)nc2-c2cc(C)nc(C)c2)c1 |
| 126 to 127 | Cc1c[nH]c(-c2ccc(F)cc2)c1-c1ccc(F)cc1 |
| 139 to 140 | COC(=O)CCCc1cc2cc(Cl)ccc2n1S(=O)(=O)c1ccc2c(c1)OCCN2C |
| 118 to 120 | O=C(Nc1ccc2c(c1)CCSCC2)OCc1ccccc1 |
| 102 | Nc1ccccc1C(=O)N1CCCc2ccccc21 |
| 172 to 176 | CS(=O)(=O)c1ccc(C(CC2CCCC2)C(=O)Nc2ncc(C(=O)O)s2)cc1 (stereo not given) |
| 187 | Cc1cccc(Cn2c(NC3CCN(CCNc4ncccn4)CC3)nc3cccnc32)n1 |
| 208 to 209 | Cc1cc(Oc2ccc(NC(=O)N3CCc4ccccc4CC3)cn2)cc(C)c1Cl |
| 236 to 238 | CCCCc1nc2cc(-c3ccccc3)cc(C(=O)O)c2n1Cc1ccccc1Cl |
| 110 to 111 | CS(=O)(=O)c1ccc(-c2cc(F)c(F)cc2-c2ccc3c(c2)OCO3)cc1 |
| 174 to 175 | COc1cc2oc(=O)c(CCN3CCN(c4ccccc4OC)CC3)c(C)c2cc1OC |
| 137 to 139 | Nc1cc2c(cc1[N+](=O)[O-])CCCCC2 |
| 77 to 80 | CC(C)(Cn1cncn1)C(O)(CCc1ccc2ccccc2c1)Cn1cncn1 (stereo not given) |
| 151 to 152 | Cc1ccccc1CC(=NC#N)NC(NC(=O)CCCCc1ccccc1)C(C)(C)C (stereo not given) |

| melting point [°C] | Compound |
| --- | --- |
| 61.5 to 64 | CCCCC(=O)C(=C1NCCCS1)[N+](=O)[O-] |
| 74 to 76 | OC[C@@H](O)[C@@H](CO)OCc1ccccc1Cl |
| 204 to 205 | N#Cc1cc(-c2ccccc2)c(=O)n2c1-c1ccccc1CC2 |
| 158 to 168 | COC(=O)[C@H](Cc1ccc(NC(=S)NCCN2CCOCC2)cc1)NC(=O)[C@@H]1CCCN1S(=O)(=O)c1ccc(C)cc1 |
| 124 to 125 | COc1ccc2c(c1)c(C(=O)N1CCN(C)CC1)c(N1CCNCC1)n2C |
| 245 to 248 | CCn1ccc(-c2sc(NC(=O)c3ccncc3)nc2-c2ccco2)cc1=O |
| 152 | CC(C)(C)NS(=O)(=O)c1ccc(C(=O)c2ccc(Cl)cc2)cc1F |
| 101 to 115 | COC(=O)c1cccc(-c2ccccc2)c1S(C)(=O)=O |
| 176 to 179 | Cn1c(C(F)F)nn(-c2cc(O)c(Cl)cc2Cl)c1=O |
| 257 to 258 | O=[N+]([O-])c1ccc(C2=NNC(=S)Cc3cc4c(cc32)OCO4)cc1 |
| 167 to 168 | Fc1ccc2c(CN3CCN(c4ccc(Cl)cc4)CC3)n[nH]c2c1F |
| 161 to 163 | CC(C)Cc1cnc(O)c([N+](=O)[O-])c1 |
| 157 to 159 | O=C(NCNC(=O)c1ccccc1C(=O)c1ccccc1)Nc1cccc(C(=O)OCc2ccccc2)c1 |
| 105 to 108 | CCCCOC(=O)NC1C(=O)N(OCC(=O)OC(c2ccccc2)c2ccccc2)C1C (stereo not given) |
| 253 to 254 | N#Cc1c(-c2cccc(C(=O)N3CCOCC3)c2)cc(-c2ccccc2O)nc1NC(=O)c1cccs1 |
| 87 to 92 | CCCCN(CC(O)C(Cc1ccccc1)NC(=O)C(C)CS(C)(=O)=O)S(=O)(=O)c1ccc(OC)cc1 (stereo not given) |
| 73 to 74.5 | CCCc1c(OCCCOc2ccc3c(c2CCC)OC(C)(CCC(=O)OC)CC3=O)ccc(C(C)=O)c1O (stereo not given) |
| 163 to 164 | CCC(=O)c1c(C)c(NC(=O)CC(C)(C)C)c(C)c2c1OCC2c1ccc(C(C)C)cc1 (stereo not given) |
| 101 to 103 | COC(=O)C(Cl)Cc1ccc(-n2c(=O)cc(C(F)(F)F)n(C)c2=O)c(F)c1 (stereo not given) |
| 133 to 134 | O=C1[C@H]2CCC[C@H]2N(C(=O)CCCCCn2ccnc2)c2ccccc2N1Cc1ccccc1 (relative stereo) |
| 138 to 140 | Cc1cn(COCCO)c(=O)[nH]c1=O |
| 99 | CNC(=O)NS(=O)(=O)c1cc(CCNC(=O)/C=C/c2cccs2)ccc1OCCOC |
| 144 to 154 | Cc1cc(C)n(-c2ncc(Br)c(Nc3ccc(Cl)cc3)n2)n1 |
| 199 to 200 | CCOC(=O)c1c(-c2ccccc2Cl)c2cc(CC)ccc2[nH]c1=O |

| melting point [°C] | Compound |
| --- | --- |
| 170 to 171 | C#CCN(C(CCn1c(=O)[nH]cc(C(F)(F)F)c1=O)C(=O)NO)S(=O)(=O)c1ccc(Oc2ccccc2)cc1 (stereo not given) |
| 101 to 105 | CN(C)CCc1cccc(N2C(=O)N(c3c(Cl)cccc3Cl)Cc3cnc(Nc4ccccc4)nc32)c1 |
| 118 to 125 | CC=C1CCC2C3CCC4CC(O)CCC4(C)C3C(N)CC12C (stereo not given) |
| 198 to 199 | Cc1nc(Cn2c(=O)sc3cc(F)c(N4C(=O)C5=C(CCCC5)C4=O)cc32)no1 |
| 162 to 167 | COc1cccc2c(=O)c(CO)cn(C)c12 |
| 299 to 302 | CC(C)COc1ccc(-c2nc3c(C(=O)O)cccc3[nH]2)cc1C#N |
| 137 to 140 | COc1ccc(F)cc1C(C)(C)CC(O)(Cn1ccc(=N)c2ccccc21)C(F)(F)F (stereo not given) |
| 165 to 167 | CCCNC(=O)N1CCc2cc(S(=O)(=O)n3cc(-c4ccccc4)[nH]c3=O)ccc21 |
| 186 to 192 | COc1cnn(C)c(=O)c1-c1c(C)cc(C)cc1C |
| 211 | CCOc1ccc2c(c1)C(C)(c1ccccc1Cl)C(=O)N2S(=O)(=O)c1ccc(N)cc1OC (stereo not given) |
| 143 to 144 | C/C(=C\c1ccc(C(=O)N2CCOCC2)cc1)c1ccc2c(c1)C(C)(C)CCC2(C)C |
| 63 | S=C=Nc1ccccc1-c1ccc(Cl)cc1 |
| 157 to 159 | O=C(O)CC(C(=O)O)C(=O)O |
| 114 to 115 | COC(=O)Cc1ccc(OCC2CN(c3ccc(C#N)cc3)C(=O)O2)cc1 (stereo not given) |
| 155 to 157 | O=C1C(=CO)C(c2ccccc2[N+](=O)[O-])=NN1c1ccc(Cl)cc1 |
| 148 | C[C@H](COc1ccc(C=C2SC(=S)N(CC(=O)O)C2=O)cc1OCc1ccccc1)c1ccccc1 |
| 100 to 103 | CC(C)CC(NC(=O)C(Cc1ccc(OCc2ccccc2)cc1)NC(=O)OC(C)(C)C)C(=O)OCc1ccccc1 (stereo not given) (Boc-Tyr(Bn)-Leu-OBn; configuration not given here) |
| 74 to 76 | CCSC(=S)N1Cc2[nH]c3ccccc3c2CC1CO (stereo not given) |
| > 280 | CCn1c(=O)c2[nH]c(/C=C/c3ccc(OC)c(C)c3C)nc2n(CC)c1=O |
| 130 | C#CC(=CC(=O)O)c1ccccc1 |
| 187 to 188 | Cc1cc(F)ccc1-c1nc(NCC(F)(F)F)nc2c1ccc(=O)n2-c1ccccc1F |
| 177 to 178 | O=C(O)CCc1oc(N2CCN(c3ccccc3)CC2)nc1-c1ccc(Cl)cc1 |
| 108 to 110 | N#CSc1cc(N)c(N)cc1Cl |
| 134 | O=c1[nH]c2ccccc2n1CCCN1CCC(O)(c2ccc(Cl)cc2)CC1 |

| melting point [°C] | Compound |
| --- | --- |
| 137 to 139 | CCC1(CO)C=NC(c2nn(Cc3ccccc3F)c3ccccc23)O1 (stereo not given) |
| 142 to 146 | CC(C)Oc1ccc(C(=O)N/C(=C\c2ccc(OC(F)(F)F)cc2)C(=O)NCCO)cc1 |
| 155 to 157 | COC(=O)[C@H](CCCO)NC(=O)[C@H](Cc1ccccc1)NC(=O)OCc1ccccc1 |
| 108 | CCCCCS(=O)(=O)NC(=O)/C=C/c1ccc(OCCO[Si](c2ccccc2)(c2ccccc2)C(C)(C)C)cc1Oc1ncc(C(F)(F)F)cc1Cl |
| 155 | O=C(CC1CC(O)CO1)NC1CCC(CCN2CCN(c3nccc4c3CCO4)CC2)CC1 (stereo not given) |
| 136 to 139 | COc1cc(C)c2c(c1O)CC(C)(c1ccccc1)C2=O (stereo not given) |
| 77 to 78 | Cc1cc2c(c(C)c1C)C(=O)C(C)(C)O2 |
| 81 to 84 | CSc1nc2c(NCc3ccccc3)ncnc2n1C1OC(CO)C(O)C1O (stereo not given) |
| 151 | Cc1nc(C(F)F)c(C(=O)Nc2ccccc2-c2ccc(Br)cc2)s1 |
| 203 to 205 | Cc1cc2c(cc1F)N(C(=O)Nc1cccnc1)CC2 |
| 284 to 285 | CC(=O)NN1CCN(C(=O)Cn2c(=O)sc3ccc(Cl)cc32)CC1 |
| 182 to 184 | COc1c(OCCn2c([N+](=O)[O-])cnc2C)cnc(CNc2nc(C)nc(C)c2Cl)c1C |
| 114 to 118 | COc1ccc(N2CCN(C(=O)C(c3ccccc3)n3cnc4[nH]ncc4c3=S)CC2)cc1 (stereo not given) |
| 104 | CCCN(CCN1CCN(c2cccc(Cl)c2Cl)CC1)C1CCc2ncsc2C1 (stereo not given) |
| 247 to 250 | Cc1cc(C#N)ccc1-c1cccc(-c2nc3cc(C#N)ccc3[nH]2)c1 |
| 82 to 84 | CCOC(=O)Cc1ccc2c(c1)sc1cccc(Cl)c12 |
| 124 to 126 | N#Cc1cccc(CN2CCC(c3ccc(NC(=O)c4ccccc4-c4ccc(C(F)(F)F)cc4)cc3)CC2)c1 |
| 70 | ClCOc1ccc2ccccc2c1 |
| 156 to 158 | CC1(C)CC(=O)C(C(=O)c2ccc(S(C)(=O)=O)cc2[N+](=O)[O-])C(=O)C1 |
| 270 to 272 | Cc1ccc2nc(C)n(C3CCC(=O)NC3=O)c(=O)c2c1 (stereo not given) |
| 128 to 130 | CC(C)OC(=O)C1=C2SCC(=CC(=O)N3CCCCC3)N2CC1 |
| 179 to 181 | CC1=NC(NC(=O)Nc2cccc(C)c2)C(=O)N(CC(=O)C2CCCCC2)c2c(C)cccc21 (stereo not given) |

| Compound | melting point [°C] |
| --- | --- |
| COc1cc2c(cc1C(C)(C)C)CCC2Cc1c[nH]cn1 (stereo not given) | 174 to 184 |
